Where two headings read alike, the source gives them in different places.
Target: T1, Cannabinoid-1 receptor (CB1R) (Rattus norvegicus, UniProt P20272)
T1 construct: The tissue obtained from the brain of SD rats was homogenized; from tissue; host or cells: brain of SD rats (membrane pellet of the homogenate)
Assay: Cannabinoid-1 receptor (CB1R) binding affinity assay ([3H]CP-55940, rat CB-1 receptor binding protocol)
Settings: brain tissue of SD rats, [3H]CP-55940, 30° C. 60 min

T1 sequence (P20272 whole entry): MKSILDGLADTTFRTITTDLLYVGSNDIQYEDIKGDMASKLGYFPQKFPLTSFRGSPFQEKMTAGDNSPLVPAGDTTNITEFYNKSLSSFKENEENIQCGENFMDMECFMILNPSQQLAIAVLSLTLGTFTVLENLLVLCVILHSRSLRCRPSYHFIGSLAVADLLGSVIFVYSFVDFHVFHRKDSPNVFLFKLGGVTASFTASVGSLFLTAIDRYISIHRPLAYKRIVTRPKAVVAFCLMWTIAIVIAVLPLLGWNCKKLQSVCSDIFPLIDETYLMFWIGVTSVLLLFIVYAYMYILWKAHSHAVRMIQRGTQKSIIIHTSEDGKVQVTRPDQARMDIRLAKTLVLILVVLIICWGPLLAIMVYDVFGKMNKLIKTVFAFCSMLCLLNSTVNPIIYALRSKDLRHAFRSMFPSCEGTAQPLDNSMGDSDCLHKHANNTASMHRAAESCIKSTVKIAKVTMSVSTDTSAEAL

| Compound | IC50 (read-out: IC50) | IC50 (IC50(nM)) |
| --- | --- | --- |
| CCc1c(-c2nnc(C3(CC)CC3)o2)nn(-c2ccc(Cl)cc2Cl)c1-c1ccc(Cl)cc1 [Example 278, 2-(5-(4-chlorophenyl)-1-(2,4-dichlorophenyl)-4-ethyl-1H-pyrazol-3-yl)-5-(1-ethylcyclopropyl)-1,3,4-oxadiazole] | 17.1 nM | – |
| CCc1c(-c2nnc(C3(CC)CC3)o2)nn(-c2ccc(Cl)cc2Cl)c1-c1ccc(Br)cc1 [Example 279, 2-(5-(4-bromophenyl)-1-(2,4-dichlorophenyl)-4-ethyl-1H-pyrazol-3-yl)-5-(1-ethylcyclopropyl)-1,3,4-oxadiazole] | – | 12.8 nM |
| Cc1c(-c2nnc(C3(Cc4ccc(Cl)cc4)CC3)o2)nn(-c2ccc(Cl)cc2Cl)c1-c1ccc(Cl)cc1 [Example 280, 2-(1-(4-chlorobenzyl)cyclopropyl)-5-(5-(4-chlorophenyl)-1-(2,4-dichlorophenyl)-4-methyl-1H-pyrazol-3-yl)-1,3,4-oxadiazole] | 11.7 nM | – |
| CCc1c(-c2nnc(C3(Cc4ccc(Cl)cc4)CC3)o2)nn(-c2ccc(Cl)cc2Cl)c1-c1ccc(Br)cc1 [Example 281, 2-(1-(4-chlorobenzyl)cyclopropyl)-5-(5-(4-bromophenyl)-1-(2,4-dichlorophenyl)-4-ethyl-1H-pyrazol-3-yl)-1,3,4-oxadiazole] | 6.21 nM | – |
| CCc1c(-c2nnc(C3(c4ccccc4F)CC3)o2)nn(-c2ccc(Cl)cc2Cl)c1-c1ccc(Cl)cc1 [Example 282, 2-(5-(4-chlorophenyl)-1-(2,4-dichlorophenyl)-4-ethyl-1H-pyrazol-3-yl)-5-(1-(2-fluorophenyl)cyclopropyl)-1,3,4-oxadiazole] | 4.08 nM | – |
| CCc1c(-c2nnc(C3(C)CC3)o2)nn(-c2ccc(Cl)cc2Cl)c1-c1ccc(Cl)cc1 [Example 283, 2-(5-(4-chlorophenyl)-1-(2,4-dichlorophenyl)-4-ethyl-1H-pyrazol-3-yl)-5-(1-methylcyclopropyl)-1,3,4-oxadiazole] | 11 nM | – |
| CC(=O)C1(c2nnc(-c3nn(-c4ccc(Cl)cc4Cl)c(-c4ccc(Cl)cc4)c3C)o2)CC1 [Example 286, 1-(1-(5-(5-(4-chlorophenyl)-1-(2,4-dichlorophenyl)-4-methyl-1H-pyrazol-3-yl)-1,3,4-oxadiazol-2-yl)cyclopropyl)ethanone] | 9.36 nM | – |
| Cc1c(-c2nnc(C3(C(C)(C)O)CC3)o2)nn(-c2ccc(Cl)cc2Cl)c1-c1ccc(Cl)cc1 [Example 287, 2-(1-(5-(5-(4-chlorophenyl)-1-(2,4-dichlorophenyl)-4-methyl-1H-pyrazol-3-yl)-1,3,4-oxadiazol-2-yl)cyclopropyl)propan-2-ol] | 34.9 nM | – |
| Cc1c(-c2nnc(C3(C(C)O)CC3)o2)nn(-c2ccc(Cl)cc2Cl)c1-c1ccc(Cl)cc1 (stereo not drawn) [Example 288, 1-(1-(5-(5-(4-chlorophenyl)-1-(2,4-dichlorophenyl)-4-methyl-1H-pyrazol-3-yl)-1,3,4-oxadiazol-2-yl)cyclopropyl)ethanol] | 60.2 nM | – |
| CCN(C)Cc1c(-c2nnc(C(C)(C)C)o2)nn(-c2ccc(Cl)cc2Cl)c1-c1ccc(Cl)cc1 [Example 290, N-((3-(5-tert-butyl-1,3,4-oxadiazol-2-yl)-5-(4-chlorophenyl)-1-(2,4-dichlorophenyl)-1H-pyrazol-4-yl)methyl)-N-methylethanamine] | 227 nM | – |
| CC(C)(C)c1nnc(-c2nn(-c3ccc(Cl)cc3Cl)c(-c3ccc(Cl)cc3)c2CN2CCCCC2)o1 [Example 291, 2-tert-butyl-5-(5-(4-chlorophenyl)-1-(2,4-dichlorophenyl)-4-(piperidin-1-ylmethyl)-1H-pyrazol-3-yl)-1,3,4-oxadiazole] | 45.7 nM | – |
| CC(C)(C)c1nnc(-c2nn(-c3ccc(Cl)cc3Cl)c(-c3ccc(Cl)cc3)c2CN2CCOCC2)o1 [Example 293, 4-((3-(5-tert-butyl-1,3,4-oxadiazol-2-yl)-5-(4-chlorophenyl)-1-(2,4-dichlorophenyl)-1H-pyrazol-4-yl)methyl)morpholine] | 135 nM | – |
| CC(C)NCc1c(-c2nnc(C(C)(C)C)o2)nn(-c2ccc(Cl)cc2Cl)c1-c1ccc(Cl)cc1 [Example 295, N-((3-(5-tert-butyl-1,3,4-oxadiazol-2-yl)-5-(4-chlorophenyl)-1-(2,4-dichlorophenyl)-1H-pyrazol-4-yl)methyl)propan-2-amine] | 41.5 nM | – |
| CC(C)(C)c1nnc(-c2nn(-c3ccc(Cl)cc3Cl)c(-c3ccc(Cl)cc3)c2Cn2cncn2)o1 [Example 296, 2-(4-((1H-1,2,4-triazol-1-yl)methyl)-5-(4-chlorophenyl)-1-(2,4-dichlorophenyl)-1H-pyrazol-3-yl)-5-tert-butyl-1,3,4-oxadiazole] | 2.36 nM | – |
| CC(C)(C)c1nnc(-c2nn(-c3ccc(Cl)cc3Cl)c(-c3ccc(Cl)cc3)c2Cn2ccnn2)o1 [Example 304, 2-(4-((1H-1,2,3-triazol-1-yl)methyl)-5-(4-chlorophenyl)-1-(2,4-dichlorophenyl)-1H-pyrazol-3-yl)-5-tert-butyl-1,3,4-oxadiazole] | 12.8 nM | – |

The next lines start with results.

| IC50 (read-out: IC50) | Compound | IC50 (IC50(nM)) |
| --- | --- | --- |
| 18.7 nM | CC(C)(C)c1nnc(-c2nn(-c3ccc(Cl)cc3Cl)c(-c3ccc(Cl)cc3)c2Cn2ccnc2)o1 [Example 297, 2-(4-((1H-imidazol-1-yl)methyl)-5-(4-chlorophenyl)-1-(2,4-dichlorophenyl)-1H-pyrazol-3-yl)-5-tert-butyl-1,3,4-oxadiazole] | – |
| 20.5 nM | CC(C)(C)c1nnc(-c2nn(-c3ccc(Cl)cc3Cl)c(-c3ccc(Cl)cc3)c2Cn2cccn2)o1 [Example 298, 2-(4-((1H-pyrazol-1-yl)methyl)-5-(4-chlorophenyl)-1-(2,4-dichlorophenyl)-1H-pyrazol-3-yl)-5-tert-butyl-1,3,4-oxadiazole] | – |
| 38.4 nM | CC(C)(C)c1nnc(-c2nn(-c3ccc(Cl)cc3Cl)c(-c3ccc(Cl)cc3)c2Cn2cccc2)o1 [Example 299, 2-(4-((1H-pyrrol-1-yl)methyl)-5-(4-chlorophenyl)-1-(2,4-dichlorophenyl)-1H-pyrazol-3-yl)-5-tert-butyl-1,3,4-oxadiazole] | – |
| 3.37 nM | CC(C)(C)c1nnc(-c2nn(-c3ccc(Cl)cc3Cl)c(-c3ccc(Cl)cc3)c2Cn2cnnn2)o1 [Example 300, 2-(4-((1H-tetrazol-1-yl)methyl)-5-(4-chlorophenyl)-1-(2,4-dichlorophenyl)-1H-pyrazol-3-yl)-5-tert-butyl-1,3,4-oxadiazole] | – |
| 7.64 nM | CC(C)(C)c1nnc(-c2nn(-c3ccc(Cl)cc3Cl)c(-c3ccc(Cl)cc3)c2Cn2cnnn2)o1 [Example 301, 2-(4-((1H-tetrazol-1-yl)methyl)-5-(4-chlorophenyl)-1-(2,4-dichlorophenyl)-1H-pyrazol-3-yl)-5-tert-butyl-1,3,4-oxadiazole] | – |
| 6.44 nM | CC(C)(C)c1nnc(-c2nn(-c3ccc(Cl)cc3Cl)c(-c3ccc(Br)cc3)c2Cn2ncnn2)o1 [Example 302, 2-(4-((2H-tetrazol-2-yl)methyl)-5-(4-bromophenyl)-1-(2,4-dichlorophenyl)-1H-pyrazol-3-yl)-5-tert-butyl-1,3,4-oxadiazole] | – |
| 12 nM | CC(C)(C)c1nnc(-c2nn(-c3ccc(Cl)cc3Cl)c(-c3ccc(Br)cc3)c2Cn2cnnn2)o1 [Example 303, 2-(4-((1H-tetrazol-1-yl)methyl)-5-(4-bromophenyl)-1-(2,4-dichlorophenyl)-1H-pyrazol-3-yl)-5-tert-butyl-1,3,4-oxadiazole] | – |
| 287 nM | CC(C)(C)c1nnc(-c2nn(-c3ccc(Cl)cc3Cl)c(-c3ccc(Cl)cc3)c2CN2C(=O)CCC2=O)o1 [Example 305, 1-((3-(5-tert-butyl-1,3,4-oxadiazol-2-yl)-5-(4-chlorophenyl)-1-(2,4-dichlorophenyl)-1H-pyrazol-4-yl)methyl)pyrrolidine-2,5-dione] | – |
| 93.9 nM | CC(C)(C)c1nnc(-c2nn(-c3ccc(Cl)cc3Cl)c(-c3ccc(Cl)cc3)c2CN2CCCC2=O)o1 [Example 306, 1-((3-(5-tert-butyl-1,3,4-oxadiazol-2-yl)-5-(4-chlorophenyl)-1-(2,4-dichlorophenyl)-1H-pyrazol-4-yl)methyl)pyrrolidin-2-one] | – |
| 125 nM | CC(C)(C)c1nnc(-c2nn(-c3ccc(Cl)cc3Cl)c(-c3ccc(Cl)cc3)c2CN2CCOC2=O)o1 [Example 307, 3-((3-(5-tert-butyl-1,3,4-oxadiazol-2-yl)-5-(4-chlorophenyl)-1-(2,4-dichlorophenyl)-1H-pyrazol-4-yl)methyl)oxazolidin-2-one] | – |
| 20.7 nM | CC(=O)SCc1c(-c2nnc(C(C)(C)C)o2)nn(-c2ccc(Cl)cc2Cl)c1-c1ccc(Cl)cc1 [Example 308, S-(3-(5-tert-butyl-1,3,4-oxadiazol-2-yl)-5-(4-chlorophenyl)-1-(2,4-dichlorophenyl)-1H-pyrazol-4-yl)methyl ethanethioate] | – |
| 6.12 nM | CC(C)(C)c1nnc(-c2nn(-c3ccc(Cl)cc3Cl)c(-c3ccc(Cl)cc3)c2CC#N)o1 [Example 310, 2-(3-(5-tert-butyl-1,3,4-oxadiazol-2-yl)-5-(4-chlorophenyl)-1-(2,4-dichlorophenyl)-1H-pyrazol-4-yl)acetonitrile] | – |
| 25.8 nM | CSCc1c(-c2nnc(C(C)(C)C)o2)nn(-c2ccc(Cl)cc2Cl)c1-c1ccc(SC)cc1 [Example 311, 2-tert-butyl-5-(1-(2,4-dichlorophenyl)-5-(4-(methylthio)phenyl)-4-(methylthiomethyl)-1H-pyrazol-3-yl)-1,3,4-oxadiazole] | – |
| 2.21 nM | Clc1ccc(-c2c(Cn3cncn3)c(-c3nnc(C4(c5ccc(Cl)cc5)CC4)o3)nn2-c2ccc(Cl)cc2Cl)cc1 [Example 313, 2-(4-((1H-1,2,4-triazol-1-yl)methyl)-5-(4-chlorophenyl)-1-(2,4-dichlorophenyl)-1H-pyrazol-3-yl)-5-(1-(4-chlorophenyl)cyclopropyl)-1,3,4-oxadiazole] | – |
| 3.42 nM | Clc1ccc(-c2c(Cn3cncn3)c(-c3nnc(C4CCC4)o3)nn2-c2ccc(Cl)cc2Cl)cc1 [Example 315, 2-(4-((1H-1,2,4-triazol-1-yl)methyl)-5-(4-chlorophenyl)-1-(2,4-dichlorophenyl)-1H-pyrazol-3-yl)-5-cyclobutyl-1,3,4-oxadiazole] | – |
